Laboratory results: patent US11400063B2, “Early administration of low-dose colchicine after myocardial infarction” (INSTITUT DE CARDIOLOGIE DE MONTREAL, priority 2019, dated 2022)

Test system: patients recruited within 30 days after a myocardial infarction
Assay: COLCOT randomized double-blind trial, efficacy end points, colchicine 0.5 mg once daily vs placebo
Type: in vivo, human
Procedure: We performed a randomized, double-blind trial involving patients recruited within 30 days after a myocardial infarction. The patients were randomly assigned to receive either low-dose colchicine (0.5 mg once daily) or placebo. A total of 4745 patients were enrolled; 2386 patients were assigned to the colchicine group, and 2379 to the placebo group. Patients were followed for a median of 22.6 months.
The primary efficacy end point was a composite of death from cardiovascular causes, resuscitated cardiac arrest, myocardial infarction (e.g., acute myocardial infraction or type II myocardial infarction), stroke, or urgent hospitalization for angina leading to coronary revascularization. The components of the primary end point and safety were also assessed.
COLCOT was an international multicenter, randomized, double-blinded trial that randomly assigned patients to receive either low-dose colchicine (0.5 mg once daily) or placebo. The study protocol and main results have been published (see, Tardif et al., N Engl J Med 2019). […] Main exclusion criteria were severe heart failure, reduced left ventricular ejection fraction (<35%), recent stroke (<3 months), type 2 MI, recent (<3 years) or planned coronary artery bypass graft (CABG), history of cancer (<3 years), and inflammatory bowel disease or chronic diarrhea. All patients enrolled in the trial benefited from percutaneous coronary intervention whenever indicated and guidelines-directed management of CV disease prior to randomization (see. Tardif et al., N Engl J Med 2019).
Clinical follow-up consisted of evaluations at 1 and 3 months after randomization and every 3 months thereafter. An independent clinical endpoint committee, blinded to trial-group assignment, adjudicated clinical endpoints. The trial was locally approved by the various institutional review boards, and all patients signed a written informed consent before enrollment.
The primary efficacy endpoint was a composite of CV death, resuscitated cardiac arrest, MI, stroke, or urgent hospitalization for angina requiring coronary revascularization. The secondary endpoints consisted of the components of the primary efficacy endpoint, all-cause death, and a composite of CV death, resuscitated cardiac arrest, MI, or stroke. Exploratory endpoints included all coronary revascularizations, including both elective and urgent coronary revascularizations.
The primary efficacy endpoint was a composite of cardiovascular death, MI, ischemic stroke, and urgent coronary revascularization. Secondary efficacy endpoints consisted of the components of the primary endpoint, composite of cardiovascular death, MI, and ischemic stroke, as well as deep vein thrombosis or pulmonary embolus, and atrial fibrillation (AF). To maximize consistency in pooling efficacy endpoints among trials, the primary and secondary composite efficacy and stroke endpoints in COLCOT were modified to meet the definition of primary and stroke endpoints of the LoDoCo2 trial. Therefore, adjudicated events of resuscitated cardiac arrest and non-ischemic stroke in COLCOT were excluded from the pooled primary endpoint. The component endpoint of stroke was also restricted to include only ischemic strokes. Incidence rates and hazards ratios (HRs) were calculated for the new primary composite endpoint and ischemic stroke endpoint using individual patient data from COLCOT.
The COLCOT trial was performed as follows. A randomized, double-blind trial involving patients recruited within 30 days after a myocardial infarction was performed. The patients were randomly assigned to receive either low-dose colchicine (0.5 mg once daily) or placebo. A total of 4745 patients were enrolled; 2386 patients were assigned to the colchicine group, and 2379 to the placebo group. […]

[1] = per-protocol population, colchicine vs placebo
[2] = subgroup History of diabetes: No
[3] = subgroup History of diabetes: Yes
[4] = subgroup History of hypertension: No
[5] = subgroup History of hypertension: Yes
[6] = subgroup Prior PCI or CABG: Yes
[7] = subgroup Prior stroke or TIA: No
[8] = subgroup Prior stroke or TIA: Yes
[9] = subgroup Smoking: Active smoker
[10] = subgroup Smoking: Previous smoker
[11] = subgroup White blood cell count: Above median
[12] = subgroup White blood cell count: Below median

Q: What does the source list for COc1cc2c(c(OC)c1OC)-c1ccc(OC)c(=O)cc1[C@@H](NC(C)=O)CC2 [Colchicine, colchicine]?
A: Resuscitated cardiac arrest, % of patients (per-protocol population): (0.2%); Resuscitated cardiac arrest, no. of patients (per-protocol population): 5 no.; Stroke, % of patients (per-protocol population): (0.2%); Stroke, no. of patients (per-protocol population): 5 no.; Urgent hospitalization for angina requiring revascularization, % of patients (per-protocol population): (1.0%); Urgent hospitalization for angina requiring revascularization, no. of patients (per-protocol population): 22 no.; Primary endpoint, no. of patients (per-protocol population, N = 2260): 115 no.; MI, Hazard Ratio (95% CI) [1]: 0.84 (0.62-1.14); Primary endpoint, Hazard Ratio (95% CI) [1]: 0.71 (0.56-0.90); Resuscitated cardiac arrest, Hazard Ratio (95% CI) [1]: 1.00 (0.29-3.46); Stroke, Hazard Ratio (95% CI) [1]: 0.26 (0.10-0.71); Urgent hospitalization for angina requiring revascularization, Hazard Ratio (95% CI) [1]: 0.47 (0.28-0.78); Primary efficacy composite endpoint, % of patients [2]: (4.8%); Primary efficacy composite endpoint, Hazard ratio (95% CI) [2]: 0.85 (0.64; 1.13); Primary efficacy composite endpoint, no. of patients with event/total no. of patients [2]: 91/1904; Primary efficacy composite endpoint, % of patients [3]: (8.7%); Primary efficacy composite endpoint, Hazard ratio (95% CI) [3]: 0.65 (0.44; 0.96); Primary efficacy composite endpoint, no. of patients with event/total no. of patients [3]: 40/462; Primary efficacy composite endpoint, % of patients [4]: (4.1%); Primary efficacy composite endpoint, Hazard ratio (95% CI) [4]: 0.80 (0.54; 1.17); Primary efficacy composite endpoint, no. of patients with event/total no. of patients [4]: 48/1181; Primary efficacy composite endpoint, % of patients [5]: (7.0%); Primary efficacy composite endpoint, Hazard ratio (95% CI) [5]: 0.76 (0.57; 1.01); Primary efficacy composite endpoint, no. of patients with event/total no. of patients [5]: 83/1185; Primary efficacy composite endpoint, % of patients (subgroup Prior MI: No): (4.3%); Primary efficacy composite endpoint, Hazard ratio (95% CI) (subgroup Prior MI: No): 0.68 (0.51; 0.89); Primary efficacy composite endpoint, no. of patients with event/total no. of patients (subgroup Prior MI: No): 85/1996; Primary efficacy composite endpoint, % of patients (subgroup Prior MI: Yes): (12.4%); Primary efficacy composite endpoint, Hazard ratio (95% CI) (subgroup Prior MI: Yes): 1.05 (0.70; 1.58); Primary efficacy composite endpoint, no. of patients with event/total no. of patients (subgroup Prior MI: Yes): 46/370; Primary efficacy composite endpoint, % of patients (subgroup Prior PCI or CABG: No): (4.3%); Primary efficacy composite endpoint, Hazard ratio (95% CI) (subgroup Prior PCI or CABG: No): 0.72 (0.54; 0.95); Primary efficacy composite endpoint, no. of patients with event/total no. of patients (subgroup Prior PCI or CABG: No): 83/1947; Primary efficacy composite endpoint, % of patients [6]: (11.5%); Primary efficacy composite endpoint, Hazard ratio (95% CI) [6]: 0.91 (0.62; 1.34); Primary efficacy composite endpoint, no. of patients with event/total no. of patients [6]: 48/419; Primary efficacy composite endpoint, % of patients [7]: (5.3%); Primary efficacy composite endpoint, Hazard ratio (95% CI) [7]: 0.76 (0.60; 0.96); Primary efficacy composite endpoint, no. of patients with event/total no. of patients [7]: 123/2311; Primary efficacy composite endpoint, % of patients [8]: (14.5%); Primary efficacy composite endpoint, Hazard ratio (95% CI) [8]: 1.09 (0.42; 2.82); Primary efficacy composite endpoint, no. of patients with event/total no. of patients [8]: 8/55; Primary efficacy composite endpoint, % of patients (subgroup Sex: Female): (7.8%); Primary efficacy composite endpoint, Hazard ratio (95% CI) (subgroup Sex: Female): 0.99 (0.63; 1.58); Primary efficacy composite endpoint, no. of patients with event/total no. of patients (subgroup Sex: Female): 37/472; Primary efficacy composite endpoint, % of patients (subgroup Sex: Male): (5.0%); Primary efficacy composite endpoint, Hazard ratio (95% CI) (subgroup Sex: Male): 0.70 (0.54; 0.91); Primary efficacy composite endpoint, no. of patients with event/total no. of patients (subgroup Sex: Male): 94/1894; Primary efficacy composite endpoint, % of patients [9]: (5.4%); Primary efficacy composite endpoint, Hazard ratio (95% CI) [9]: 0.93 (0.60; 1.44); Primary efficacy composite endpoint, no. of patients with event/total no. of patients [9]: 38/708; Primary efficacy composite endpoint, % of patients (subgroup Smoking: Non-smoker): (6.0%); Primary efficacy composite endpoint, Hazard ratio (95% CI) (subgroup Smoking: Non-smoker): 0.90 (0.61; 1.34); Primary efficacy composite endpoint, no. of patients with event/total no. of patients (subgroup Smoking: Non-smoker): 47/787; Primary efficacy composite endpoint, % of patients [10]: (5.3%); Primary efficacy composite endpoint, Hazard ratio (95% CI) [10]: 0.59 (0.41; 0.85); Primary efficacy composite endpoint, no. of patients with event/total no. of patients [10]: 46/871; Primary efficacy composite endpoint, % of patients [11]: (5.3%); Primary efficacy composite endpoint, Hazard ratio (95% CI) [11]: 0.80 (0.51; 1.25); Primary efficacy composite endpoint, no. of patients with event/total no. of patients (subgroup White blood cell count: Above median (8.64 × 10^3/μL)): 34/637; Primary efficacy composite endpoint, % of patients [12]: (6.2%); Primary efficacy composite endpoint, Hazard ratio (95% CI) [12]: 0.85 (0.56; 1.29); Primary efficacy composite endpoint, no. of patients with event/total no. of patients (subgroup White blood cell count: Below median (8.64 × 10^3/μL)): 41/660
